This test deals with T1, p53 Y220C (Homo sapiens, UniProt P04637, Y220C).
T1 construct: The recombinant protein was a truncation mutant containing only amino acids 94-312 of p53; made in house; host or cells: E. coli
T1 sequence (P04637 94-312, change not shown): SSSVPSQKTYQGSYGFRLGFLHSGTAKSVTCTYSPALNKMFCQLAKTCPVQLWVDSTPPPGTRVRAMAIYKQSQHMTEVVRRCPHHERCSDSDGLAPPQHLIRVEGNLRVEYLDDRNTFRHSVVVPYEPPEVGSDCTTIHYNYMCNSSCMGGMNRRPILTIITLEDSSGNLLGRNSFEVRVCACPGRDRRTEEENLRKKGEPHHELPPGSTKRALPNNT
In words: In vitro DNA binding activity assay (HTRF / TR-FRET): stabilization of p53 Y220C and increase of its DNA binding activity. The note with it: recombinant His-tagged p53 Y220C DNA binding domain (aa 94-312), biotin-labeled consensus DNA, incubated at 27° C. or 29° C. for 60 min. Type of test: biochemical. The essentials:
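Compound effect on DNA binding of recombinant His-p53 Y220C (E. coli) to biotin-labeled consensus DNA, expressed as SC150, the concentration giving 50% increase versus untreated. Serial 3-fold DMSO dilutions of 4.5 mM stocks; room-temperature steps of 15 then 20 min.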
On the technique in general: Time-resolved FRET reads energy transfer from a long-lived donor to a nearby acceptor.
Turning to `CNC(=O)c1ccc(NCC#Cc2cc3c(N[C@H]4CC[C@H](N5CCC(OC)CC5)CC4)cccc3n2CC(F)(F)F)c(OC)c1` [Compound 352A, 3-methoxy-N-methyl-4-{[3-(4-{[(1R,4R)-4-(4-methoxypiperidin-1-yl)cyclohexyl]amino}-1-(2,2,2-trifluoroethyl)-1H-indol-2-yl)prop-2-yn-1-yl]amino}benzamide], the “SC150 (concentration of the compound required to increase the DNA binding activity by 50%)” value is recorded as “+ (+ = 0 μM ≤ SC150 < 0.05 μM)”. To `COc1cc(C(=O)N2CC3(CCOCC3)C2)ccc1NCC#Cc1cc2c(NC3CCN(C)CC3)cccc2n1CC(F)(F)F` [Compound 511A, 2-{3-[(2-methoxy-4-{7-oxa-2-azaspiro[3.5]nonane-2-carbonyl}phenyl)amino]prop-1-yn-1-yl}-N-(1-methylpiperidin-4-yl)-1-(2,2,2-trifluoroethyl)-1H-indol-4-amine] belongs “+ (+ = 0 μM ≤ SC150 < 0.05 μM)”; to `COc1cc(S(=O)(=O)N(C)C)ccc1NCC#Cc1cc2c(NC3CCNCC3)cccc2n1CC(F)(F)F` [Compound 460A], “+ (+ = 0 μM ≤ SC150 < 0.05 μM)”. On to `COc1cc(C(N)=O)ccc1NCC#Cc1cc2c(N[C@@H]3CCNC[C@@H]3F)cccc2n1CC(F)(F)F` [Compound 849A, 4-{[3-(4-{[(3S,4R)-3-fluoropiperidin-4-yl]amino}-1-(2,2,2-trifluoroethyl)-1H-indol-2-yl)prop-2-yn-1-yl]amino}-3-methoxybenzamide], for which the “SC150 (concentration of the compound required to increase the DNA binding activity by 50%)” value is “+ (+ = 0 μM ≤ SC150 < 0.05 μM)”.

On to `COc1cc(S(N)(=O)=O)ccc1NCC#Cc1cc2c(NC3CCOCC3)c(OC)ccc2n1CC(F)(F)F` [Compound 1010A, 3-methoxy-4-[(3-{5-methoxy-4-[(oxan-4-yl)amino]-1-(2,2,2-trifluoroethyl)-1H-indol-2-yl}prop-2-yn-1-yl)amino]benzene-1-sulfonamide], for which the “SC150 (concentration of the compound required to increase the DNA binding activity by 50%)” value is given as “++++ (++++ = 0.2 μM ≤ SC150 < 1 μM)”.

`COC[C@H](O)CN1CCC(Nc2cccc3c2cc(C#CCNc2ccc(S(C)(=O)=O)cc2OCF)n3CC(F)(F)F)CC1` [Compound 667A, (2R)-1-(4-{[2-(3-{[2-(fluoromethoxy)-4-methanesulfonylphenyl]amino}prop-1-yn-1-yl)-1-(2,2,2-trifluoroethyl)-1H-indol-4-yl]amino}piperidin-1-yl)-3-methoxypropan-2-ol]: the “SC150 (concentration of the compound required to increase the DNA binding activity by 50%)” value is listed as “+ (+ = 0 μM ≤ SC150 < 0.05 μM)”. The entry for `COc1cc(S(N)(=O)=O)ccc1NCC#Cc1cc2c(N[C@H]3CCO[C@@H](C)C3)cccc2n1CC(F)(F)F` [Compound 1019A, 3-methoxy-4-{[3-(4-{[(2S,4S)-2-methyloxan-4-yl]amino}-1-(2,2,2-trifluoroethyl)-1H-indol-2-yl)prop-2-yn-1-yl]amino}benzene-1-sulfonamide] is “+ (+ = 0 μM ≤ SC150 < 0.05 μM)”; for `COc1cc(S(=O)(=O)Nc2cc(C)on2)ccc1NCC#Cc1cc2c(NC3CCS(=O)(=O)CC3)cccc2n1CC(F)(F)F` [Compound 1040A, 4-[(3-{4-[(1,1-dioxo-1λ^6-thian-4-yl)amino]-1-(2,2,2-trifluoroethyl)-1H-indol-2-yl}prop-2-yn-1-yl)amino]-3-methoxy-N-(5-methyl-1,2-oxazol-3-yl)benzene-1-sulfonamide] it is “+ (+ = 0 μM ≤ SC150 < 0.05 μM)”; for `CCNC(=O)c1ccc(NCC#Cc2cc3c(N[C@H]4CC[C@H](N5CCOCC5)CC4)cccc3n2CC(F)(F)F)c(OC)c1` [Compound 183A, N-ethyl-3-methoxy-4-{[3-(4-{[(1R,4R)-4-(morpholin-4-yl)cyclohexyl]amino}-1-(2,2,2-trifluoroethyl)-1H-indol-2-yl)prop-2-yn-1-yl]amino}benzamide] it is “+ (+ = 0 μM ≤ SC150 < 0.05 μM)”. The entry for `COc1cc(S(=O)(=O)N(CCO)CCO)ccc1NCC#Cc1cc2c(N[C@H]3CC[C@@H](N(C)C)CC3)cccc2n1CC(F)(F)F` [Compound 69A, N,N-bis(2-hydroxyethyl)-3-methoxy-4-{[3-(4-{[(1S,4S)-4-(dimethyl-amino)cyclohexyl]amino}-1-(2,2,2-trifluoroethyl)-1H-indol-2-yl)prop-2-yn-1-yl]amino}benzene-1-sulfonamide] is “+ (+ = 0 μM ≤ SC150 < 0.05 μM)”; for `COc1cc(S(C)(=O)=O)ccc1NCC#Cc1cc2c(N[C@H]3C[C@@H](C)O[C@@H](C)C3)cccc2n1CC(F)(F)F` [Compound 1027A, 2-{3-[(4-methanesulfonyl-2-methoxyphenyl)amino]prop-1-yn-1-yl}-N-[(2R,4R,6S)-2,6-dimethyloxan-4-yl]-1-(2,2,2-trifluoroethyl)-1H-indol-4-amine] it is “++ (++ = 0.05 μM ≤ SC150 < 0.1 μM)”; for `COc1cc(S(N)(=O)=O)ccc1NCC#Cc1cc2c(N[C@H]3CC[C@H](N4CCC5(CCOCC5)CC4)CC3)cccc2n1CC(F)(F)F` [Compound 418A, 3-methoxy-4-{[3-(4-{[(1R,4R)-4-{3-oxa-9-azaspiro[5.5]undecan-9-yl}cyclohexyl]amino}-1-(2,2,2-trifluoroethyl)-1H-indol-2-yl)prop-2-yn-1-yl]amino}benzene-1-sulfonamide] it is “+ (+ = 0 μM ≤ SC150 < 0.05 μM)”. For the compound `COc1cc(S(=O)(=O)N2CC3(COC3)C2)ccc1NCC#Cc1cc2c(NC3CCS(=O)(=O)CC3)cccc2n1CC(F)(F)F` [Compound 1047A, 4-[(2-{3-[(2-methoxy-4-{2-oxa-6-azaspiro[3.3]heptane-6-sulfonyl}phenyl)amino]prop-1-yn-1-yl}-1-(2,2,2-trifluoroethyl)-1H-indol-4-yl)amino]-1λ^6-thiane-1,1-dione], the “SC150 (concentration of the compound required to increase the DNA binding activity by 50%)” value is listed as “+ (+ = 0 μM ≤ SC150 < 0.05 μM)”. To `COc1cc(C(N)=O)ccc1NCC#Cc1cc2c(N[C@H]3CC[C@@H](N4CCOCC4)CC3)cccc2n1CC(F)(F)F` [Compound 171A, 3-methoxy-4-{[3-(4-{[(1S,4S)-4-(morpholin-4-yl)cyclohexyl]amino}-1-(2,2,2-trifluoroethyl)-1H-indol-2-yl)prop-2-yn-1-yl]amino}benzamide] belongs “+ (+ = 0 μM ≤ SC150 < 0.05 μM)”.

Regarding `CS(=O)(=O)c1ccc(NCC#Cc2cc3c(NC4CCOCC4)cccc3n2CC(F)(F)F)c(O)c1` [Compound 1009A, 5-methanesulfonyl-2-[(3-{4-[(oxan-4-yl)amino]-1-(2,2,2-trifluoroethyl)-1H-indol-2-yl}prop-2-yn-1-yl)amino]phenol], the “SC150 (concentration of the compound required to increase the DNA binding activity by 50%)” value is given as “+ (+ = 0 μM ≤ SC150 < 0.05 μM)”. The entry for `COc1cc(S(C)(=O)=O)ccc1NCC#Cc1cc2c(N[C@H]3CCC[C@H](N)C3)cccc2n1CC(F)(F)F` (relative stereo) [Compound 26A, rel-(1R,3R)-N^1-(2-{3-[(4-methanesulfonyl-2-methoxyphenyl)amino]prop-1-yn-1-yl}-1-(2,2,2-trifluoroethyl)-1H-indol-4-yl)cyclohexane-1,3-diamine] is “+ (+ = 0 μM ≤ SC150 < 0.05 μM)”; for `CCN1CCC(Nc2cccc3c2cc(C#CCNc2ccc(S(N)(=O)=O)cc2OC)n3CC(F)(F)F)CC1` [Compound 538A, 4-[(3-{4-[(1-ethylpiperidin-4-yl)amino]-1-(2,2,2-trifluoroethyl)-1H-indol-2-yl}prop-2-yn-1-yl)amino]-3-methoxybenzene-1-sulfonamide] it is “+ (+ = 0 μM ≤ SC150 < 0.05 μM)”; for `CCC(=O)NS(=O)(=O)c1ccc(NCC#Cc2cc3c(NC4CCN(CC(COC)OC(=O)CC)CC4)cccc3n2CC(F)(F)F)c(OC)c1` (stereo not shown) [Compound 627A, 1-methoxy-3-(4-{[2-(3-{[2-methoxy-4-(propanamidosulfonyl)phenyl]amino}prop-1-yn-1-yl)-1-(2,2,2-trifluoroethyl)-1H-indol-4-yl]amino}piperidin-1-yl)propan-2-yl propanoate] it is “+ (+ = 0 μM ≤ SC150 < 0.05 μM)”. Turning to `COc1cc(S(N)(=O)=O)ccc1NCC#Cc1cc2c(N[C@@H]3CCN(C[C@@H](O)CO)C[C@@H]3F)cccc2n1CC(F)(F)F` [Compound 882A], the “SC150 (concentration of the compound required to increase the DNA binding activity by 50%)” value is “+ (+ = 0 μM ≤ SC150 < 0.05 μM)”. The entry for `CS(=O)(=O)c1ccc(NCC#Cc2cc3c(N[C@H]4CC[C@H](N5CC6(COC6)C5)CC4)cccc3n2CC(F)(F)F)c(OCC(F)(F)F)c1` [Compound 231A, 2-(3-{[4-methane-sulfonyl-2-(2,2,2-trifluoro-ethoxy)phenyl]amino}prop-1-yn-1-yl)-N-[(1R,4R)-4-{2-oxa-6-azaspiro[3.3]heptan-6-yl}cyclohexyl]-1-(2,2,2-trifluoroethyl)-1H-indol-4-amine] is “+ (+ = 0 μM ≤ SC150 < 0.05 μM)”.

Take `CCOC(=O)c1ccc(NCC#Cc2cc3c(N[C@@H]4CCN(CC)C[C@@H]4F)cccc3n2CC(F)(F)F)c(OC)c1` [Compound 823A]: the “SC150 (concentration of the compound required to increase the DNA binding activity by 50%)” value is on record as “+ (+ = 0 μM ≤ SC150 < 0.05 μM)”. In the case of `COc1cc(S(C)(=O)=O)ccc1NCC#Cc1cc2c(NC3CCN(C[C@@H](O)CO)CC3)cccc2n1CC(F)(F)F` [Compound 557A, (2R)-3-{4-[(2-{3-[(4-methanesulfonyl-2-methoxyphenyl)amino]prop-1-yn-1-yl}-1-(2,2,2-trifluoroethyl)-1H-indol-4-yl)amino]piperidin-1-yl}propane-1,2-diol], the “SC150 (concentration of the compound required to increase the DNA binding activity by 50%)” value is listed as “+ (+ = 0 μM ≤ SC150 < 0.05 μM)”.

(Values after patent publication US12428406B2 (PMV Pharmaceuticals, Inc., priority 2019, dated 2025).)
